Data on 19 molecules can be found in ChEMBL document CHEMBL5370641, “Structure-Based Optimization and Biological Evaluation of Potent and Selective MMP-7 Inhibitors for Kidney Fibrosis” (J Med Chem, 2023).

The target of one assay is T1, Matrilysin (Homo sapiens, UniProt P09237).
T1 sequence (P09237 whole entry): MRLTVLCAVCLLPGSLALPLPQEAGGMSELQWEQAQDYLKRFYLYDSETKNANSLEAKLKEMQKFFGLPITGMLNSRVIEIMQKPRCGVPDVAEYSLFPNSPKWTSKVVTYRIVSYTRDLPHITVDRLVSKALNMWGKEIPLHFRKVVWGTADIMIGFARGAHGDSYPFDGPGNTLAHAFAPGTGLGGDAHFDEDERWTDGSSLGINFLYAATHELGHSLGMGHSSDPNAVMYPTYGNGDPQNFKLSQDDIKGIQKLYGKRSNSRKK
Kind of assay: Inhibition of recombinant human MMP7 using MOCAc-Pro-Leu-Gly-Leu-A2pr-(Dnp)-Ala-Arg-NH2 as substrate preincubated with compound for 15 mins followed by substrate addition and measured after 2 hrs by fluorescence based analysis.

The target in assay [1] is Matrix metalloproteinase-14 (Homo sapiens, UniProt P50281). Kind of assay: Inhibition of recombinant human MMP14 using MOCAc-Lys-Pro-Leu-Gly-Leu-A2pr(Dnp)-Ala-Arg-NH2 as substrate preincubated with compound for 15 mins followed by substrate addition and measured after 1 hrs by fluorescence based analysis.

Structures are written as SMILES. pIC50: −log10 of the molar value. Numbered stars: 1 amine (or outer) side, 2 acyl side, 3 side chain; on linkers, the order of the positions; unused ones are H or OH. Square brackets hold non-standard residues; d marks the D form. Peptide text beside a SMILES is read from it. * marks the point of attachment. Benzenesulfonyl(4-Cl,3-CF3) = O=S(=O)(c1ccc(Cl)c(C(F)(F)F)c1)*; Phe(4-CF3) = N[C@@H](Cc1ccc(C(F)(F)F)cc1)C(=O)O; Ala(4-Pyridazinyl) = N[C@@H](Cc1ccnnc1)C(=O)O; Ala(thiazol-2-yl) = N[C@@H](Cc1nccs1)C(=O)O; Ala(4-thiazolyl) = N[C@@H](Cc1cscn1)C(=O)O; Phe(3-I) = N[C@@H](Cc1cccc(I)c1)C(=O)O; Phe(4-I) = N[C@@H](Cc1ccc(I)cc1)C(=O)O; γGlu = O=C(O)[C@H](CCC(=O)[*:2])N[*:1]; Phe(2-I) = N[C@@H](Cc1ccccc1I)C(=O)O; hPhe = N[C@@H](CCc1ccccc1)C(=O)O; 2Pal = N[C@@H](Cc1ccccn1)C(=O)O; 3Pal = N[C@@H](Cc1cccnc1)C(=O)O; Phg = N[C@H](C(=O)O)c1ccccc1; Tle = CC(C)(C)[C@H](N)C(=O)O; β3hP = O=C(O)C[C@@H]1CCCN1

A word on the pIC50: it is −log10 of the IC50, conventionally taken in molar units.

As for `CC(C)(C)[C@H](NC(=O)[C@H](Cc1ccc(C(F)(F)F)cc1)NC(=O)CNC(=O)CC[C@H](NS(=O)(=O)c1ccc(Cl)c(C(F)(F)F)c1)C(=O)O)C(=O)N1CCC[C@H]1CC(N)=O` ({Benzenesulfonyl(4-Cl,3-CF3)-γGlu}-G[Phe(4-CF3)][Tle][β3hP]-NH2), the pIC50 on Matrilysin was 8.00; in assay [1] it was 5.77.

Consider `CC(C)(C)[C@H](NC(=O)[C@H](CCc1ccccc1)NC(=O)CNC(=O)CC[C@H](NS(=O)(=O)c1ccc(Cl)c(C(F)(F)F)c1)C(=O)O)C(=O)N1CCC[C@H]1CC(N)=O` ({Benzenesulfonyl(4-Cl,3-CF3)-γGlu}-G[hPhe][Tle][β3hP]-NH2), for which the pIC50 on Matrilysin is 7.10; in assay [1] it was 5.35.

Regarding `CC(C)(C)[C@H](NC(=O)[C@H](Cc1ccccc1I)NC(=O)CNC(=O)CC[C@H](NS(=O)(=O)c1ccc(Cl)c(C(F)(F)F)c1)C(=O)O)C(=O)N1CCC[C@H]1CC(N)=O` ({Benzenesulfonyl(4-Cl,3-CF3)-γGlu}-G[Phe(2-I)][Tle][β3hP]-NH2), the results for the negative logarithm of the IC50 (pIC50) (at Matrilysin; in assay [1]) were 8.06 and 5.47, respectively.

Take `CC(C)(C)[C@H](NC(=O)[C@H](Cc1cccnn1)NC(=O)CNC(=O)CC[C@H](NS(=O)(=O)c1ccc(Cl)c(C(F)(F)F)c1)C(=O)O)C(=O)N1CCC[C@H]1CC(N)=O`: the pIC50 at Matrilysin is 8.22; in assay [1], 5.08.

With `CC(C)(C)[C@H](NC(=O)[C@H](Cn1ccnn1)NC(=O)CNC(=O)CC[C@H](NS(=O)(=O)c1ccc(Cl)c(C(F)(F)F)c1)C(=O)O)C(=O)N1CCC[C@H]1CC(N)=O`, the results for the pIC50 (at Matrilysin; in assay [1]) were 7.49 and 5.08, respectively.

On to `CC(C)(C)[C@H](NC(=O)[C@H](Cc1ccc(O)cc1)NC(=O)CNC(=O)CC[C@H](NS(=O)(=O)c1ccc(Cl)c(C(F)(F)F)c1)C(=O)O)C(=O)N1CCC[C@H]1CC(N)=O` ({Benzenesulfonyl(4-Cl,3-CF3)-γGlu}-GY[Tle][β3hP]-NH2), for which the results for the negative logarithm of the IC50 (pIC50) (at Matrilysin; in assay [1]) were 8.02 and 5.57, respectively.

In the case of `CC(C)(C)[C@H](NC(=O)[C@H](Cc1ccnnc1)NC(=O)CNC(=O)CC[C@H](NS(=O)(=O)c1ccc(Cl)c(C(F)(F)F)c1)C(=O)O)C(=O)N1CCC[C@H]1CC(N)=O` ({Benzenesulfonyl(4-Cl,3-CF3)-γGlu}-G[Ala(4-Pyridazinyl)][Tle][β3hP]-NH2), the negative-log IC50 (pIC50) on Matrilysin is 8.55; in assay [1] it was 5.85.

In the case of `CC(C)(C)[C@H](NC(=O)[C@H](Cc1ccc(I)cc1)NC(=O)CNC(=O)CC[C@H](NS(=O)(=O)c1ccc(Cl)c(C(F)(F)F)c1)C(=O)O)C(=O)N1CCC[C@H]1CC(N)=O` ({Benzenesulfonyl(4-Cl,3-CF3)-γGlu}-G[Phe(4-I)][Tle][β3hP]-NH2), the negative-log IC50 (pIC50) on Matrilysin is 8.08; in assay [1], 6.16.

For `CC(C)(C)[C@H](NC(=O)[C@H](Cc1cscn1)NC(=O)CNC(=O)CC[C@H](NS(=O)(=O)c1ccc(Cl)c(C(F)(F)F)c1)C(=O)O)C(=O)N1CCC[C@H]1CC(N)=O` ({Benzenesulfonyl(4-Cl,3-CF3)-γGlu}-G[Ala(4-thiazolyl)][Tle][β3hP]-NH2), the pIC50 at Matrilysin was 8.42; in assay [1], 6.03.

Turning to `CC(C)(C)[C@H](NC(=O)[C@H](Cc1cccc(I)c1)NC(=O)CNC(=O)CC[C@H](NS(=O)(=O)c1ccc(Cl)c(C(F)(F)F)c1)C(=O)O)C(=O)N1CCC[C@H]1CC(N)=O` ({Benzenesulfonyl(4-Cl,3-CF3)-γGlu}-G[Phe(3-I)][Tle][β3hP]-NH2), the pIC50 is 7.92 on Matrilysin and 5.51 in assay [1].

Consider `CC(C)(C)[C@H](NC(=O)[C@H](Cn1cc(C2CC2)nn1)NC(=O)CNC(=O)CC[C@H](NS(=O)(=O)c1ccc(Cl)c(C(F)(F)F)c1)C(=O)O)C(=O)N1CCC[C@H]1CC(N)=O`, for which the pIC50 on Matrilysin was 7.40; in assay [1] it was 5.03.

For the molecule `CC(C)(C)[C@H](NC(=O)[C@H](Cc1nccs1)NC(=O)CNC(=O)CC[C@H](NS(=O)(=O)c1ccc(Cl)c(C(F)(F)F)c1)C(=O)O)C(=O)N1CCC[C@H]1CC(N)=O` ({Benzenesulfonyl(4-Cl,3-CF3)-γGlu}-G[Ala(thiazol-2-yl)][Tle][β3hP]-NH2), the negative logarithm of the IC50 (pIC50) was 8.02 on Matrilysin and 5.42 in assay [1].

Take `CC(C)Cn1cc(-c2ccc(C[C@H](NC(=O)CNC(=O)CC[C@H](NS(=O)(=O)c3ccc(Cl)c(C(F)(F)F)c3)C(=O)O)C(=O)N[C@H](C(=O)N3CCC[C@H]3CC(N)=O)C(C)(C)C)cc2)cn1`: the values for the pIC50 (at Matrilysin; in assay [1]) were 7.64 and 4.34, respectively.

As to `CC(C)c1cn(C[C@H](NC(=O)CNC(=O)CC[C@H](NS(=O)(=O)c2ccc(Cl)c(C(F)(F)F)c2)C(=O)O)C(=O)N[C@H](C(=O)N2CCC[C@H]2CC(N)=O)C(C)(C)C)nn1`, the pIC50 at Matrilysin was 7.00; in assay [1] it was 4.80.

Consider `CC(C)(C)[C@H](NC(=O)[C@H](Cc1cccnc1)NC(=O)CNC(=O)CC[C@H](NS(=O)(=O)c1ccc(Cl)c(C(F)(F)F)c1)C(=O)O)C(=O)N1CCC[C@H]1CC(N)=O` ({Benzenesulfonyl(4-Cl,3-CF3)-γGlu}-G[3Pal][Tle][β3hP]-NH2), for which the figures for the pIC50 (on Matrilysin; in assay [1]) were 8.77 and 5.57, respectively.

As to `COc1ccc(C[C@H](NC(=O)CNC(=O)CC[C@H](NS(=O)(=O)c2ccc(Cl)c(C(F)(F)F)c2)C(=O)O)C(=O)N[C@H](C(=O)N2CCC[C@H]2CC(N)=O)C(C)(C)C)cc1` ({Benzenesulfonyl(4-Cl,3-CF3)-γGlu}-GY(Me)[Tle][β3hP]-NH2), the figures for the pIC50 (at Matrilysin; in assay [1]) were 7.85 and 5.70, respectively.

`CC(C)(C)[C@H](NC(=O)[C@@H](NC(=O)CNC(=O)CC[C@H](NS(=O)(=O)c1ccc(Cl)c(C(F)(F)F)c1)C(=O)O)c1ccccc1)C(=O)N1CCC[C@H]1CC(N)=O` ({Benzenesulfonyl(4-Cl,3-CF3)-γGlu}-G[Phg][Tle][β3hP]-NH2): the pIC50 on Matrilysin was 6.42; in assay [1] it was 5.29.

`CC(C)(C)[C@H](NC(=O)[C@H](Cc1ccccn1)NC(=O)CNC(=O)CC[C@H](NS(=O)(=O)c1ccc(Cl)c(C(F)(F)F)c1)C(=O)O)C(=O)N1CCC[C@H]1CC(N)=O` ({Benzenesulfonyl(4-Cl,3-CF3)-γGlu}-G[2Pal][Tle][β3hP]-NH2): the pIC50 on Matrilysin is 8.72; in assay [1] it was 5.46.

Turning to `CC(C)(C)[C@H](NC(=O)[C@H](Cc1ccccc1)NC(=O)CNC(=O)CC[C@H](NS(=O)(=O)c1ccc(Cl)c(C(F)(F)F)c1)C(=O)O)C(=O)N1CCC[C@H]1CC(N)=O` ({Benzenesulfonyl(4-Cl,3-CF3)-γGlu}-GF[Tle][β3hP]-NH2), the values for the negative logarithm of the IC50 (pIC50) (at Matrilysin; in assay [1]) were 7.89 and 5.49, respectively.
